Reference: BindingDB's records for doi:10.1021/jm401801t (University of Geneva, 2014)

Tests used:
[1] = Inhibition of human HSP90beta expressed in yeast assessed as growth inhibition of host after 72 hrs
[2] = Inhibition of human HSP90alpha expressed in yeast assessed as growth inhibition of host after 72 hrs

IC50 [1]: 120 µM | IC50 [2]: 308 µM
SMILES: COCC(=O)Nc1c(C(=O)OC)n(CCC(C)C)c2ncc(NC(C)CCC=C(C)C)cc12 (configuration not stated)
